# Assay results taken from patent US10144748B1, “Anti-inflammatory zinc(II) complex” (KING SAUD UNIVERSITY, priority 2018, dated 2018).
# Test system: carrageenan-induced hind paw edema
# Assay: carrageenan-induced hind paw edema (anti-inflammatory effect in vivo)
# Set-up: species or system Wistar rats
# Settings: for time up to which the anti-inflammatory effect increased: after oral administration, diclofenac 4 mg/kg, Zn(II) complex 10 mg/kg, measured at 1-6 hours; for percent inhibition of inflammation (paw edema) vs control group: male Wistar rats, half an hour before carrageenan; for anti-inflammatory effect in vivo (in words): Wistar rats, 10 mg/kg
# Description: The crystalline zinc complex was evaluated for anti-inflammatory effects in vivo in Wistar rats, compared to the known NSAID diclofenac as a standard treatment.
# Eighteen male Wistar rats (weighing from 200-250 g) were obtained from the “Animal Care and Use Center of College of Pharmacy at King Saud University, Riyadh, Saudi Arabia”. Institutional guidelines were followed for these studies. All rats were provided standard laboratory conditions of “temperature and relative humidity. The rats were kept in plastic cages and given free access to standard laboratory pellet diet and water ad libitum.
# The anti-inflammatory studies were performed by the standard carrageenan-induced hind paw edema method of inducing acute swelling, known in the industry and widely reported in the literature. The rats were randomly divided into 3 groups of 6 rats. Group I rats were given carrageenan only, and served as control group. Group II and III rats were given standard diclofenac and the studied Zn(II) complex, respectively.
# The standard diclofenac (4 mg/kg) and the Zn(II) complex (10 mg/kg) were administered orally half an hour before sub plantar injection of carrageenan in the right paw. Paw edema was induced by injecting 0.1 ml of a 1% w/v suspension of carrageenan in purified water. The initial and final paw volume of each rat was measured at regular interval of time (1, 2, 3, 4, 5 and 6 hours) after injection, using a digital Plethysmometer (Ugo Basile, Italy). The percent inhibition of edema produced by the diclofenac- and zinc(II) complex-treated groups was determined with respect to the control group, using the standard formula used with this type of test, as known in the industry and reported in the literature. The inhibition of inflammation was analyzed statistically by applying a student t-test, using the MS Excel 2010 spreadsheet program. A P value <0.05 was considered statistically significant.
Molecule,time up to which the anti-inflammatory effect increased,"percent inhibition of inflammation (paw edema) vs control group (4 mg/kg oral, 5 hours past oral administration)",anti-inflammatory effect in vivo (in words) (10 mg/kg oral),"anti-inflammatory effect in vivo (in words) (10 mg/kg oral, listed as zinc complex)","percent inhibition of inflammation (paw edema) vs control group (10 mg/kg oral, 6 hours post oral administration)"
"O=C(O)Cc1ccccc1Nc1c(Cl)cccc1Cl [diclofenac, reference compound]",about 5 hours,82.31%,,,
"bis(chloro)-(N,N′-(2,2-dimethylpropane-1,3-diyl)bis(1-(2-chlorophenyl)methanimine))-zinc(II) complex [Zn(II) complex]",about 6 hours,,good anti-inflammatory effect,good degree of anti-inflammatory activity,56.39%
